These results are taken from US11987835B2, “Amino acid-sensing diguanylate cyclase and methods of use” (priority 2019, dated 2024).

Experiment [1] relates to Aer01 SpdE tandem PAS/dCache region (residues 37-287). The experiment in a line: Thermofluor (thermal shift) assay, Aer01 SpdE. The experiment is classed as binding, Aeromonas veronii. To be noted: 10 mM pure amino acid; for thermal shift (ΔTm) in words: replicate ΔTm data. Here is the method:
(§1) Thermofluor Assay. The periplasmic portion of SpdE was cloned, expressed and purified in E. coli. Thermofluor assays were performed using a Thermo Fisher Scientific StepOnePlus Real-time PCR instrument. Each 20 μL sample contained 0.1 mg/mL SpdE protein, 4× SYPRO Orange dye, 165 mM NaCl, 80 mM Tris pH 7.5 and 10 mM ligand (free amino acid dissolved in water). All samples were done in triplicate and repeated 2-3 times on different days. All reagents and steps were performed at 4° C. and placed in 96 well PCR plates. The PCR plate was slowly heated (˜0.03° C./sec) from 4° C. to 80° C. in the StepOnePlus instrument and fluorescent measurements were taken every 8.5 sec. The resultant thermal shift curves were analyzed to find the inflexion points, which correspond to the melting temperature (Tm) of the protein (with or without ligand). Inflexion points were determined in Microsoft Excel by calculating the half way point between the minimum fluorescence value prior to fluorescence increase and the maximum fluorescence value. The Tm difference between protein with and without ligand was calculated and plotted to determine the thermal stability shift as a proxy for ligand binding.
In order to identify SpdE ligands, a thermal shift assay was conducted using 96-well Biolog Phenotype MicroArray plates as a high-throughput approach to screen compounds for ligand candidates. Using heterologously expressed and purified tandem PAS/dCache region of the protein (residues 37-287), ˜200 compounds were screened for ones that conferred a significant shift in protein thermal stability (see Table 4). […] For each curve, the melting temperature (Tm) was determined (brown circles), which corresponds to the midpoint of protein unfolding. The ΔTm (difference between test Tm and water control Tm) was calculated for each amino acid condition.

The test system of experiment [2] is SpdE diguanylate cyclase activity in Aer01. The experiment in a line: Intracellular cyclic di-GMP quantification. The note with it: WT Aer01, 1 mM amino acid, ~4 hrs, versus no ligand. The experiment is classed as cell-based, Aeromonas veronii.
Description: Intracellular cyclic di-GMP quantification. […] Cultures were incubated, shaking, at 30° C. for 4 hours. Sample OD600 was measured and the entire volume pelleted. Sample pellets were resuspended in 300 μL ice cold extraction buffer (40/40/20 acetonitrile/methanol/water+0.1 N formic acid), iced for 30 min, then pelleted at maximum speed in tabletop microcentrifuge for 10 min. The supernatant was transferred to a new tube and stored at −80° until being vacuum concentrated until completely evaporated.
Dried samples were resuspended in 100 μL Ultra Performance liquid chromatography-grade water and centrifuged for two minutes at 18,000×g (Eppendorf® Centrifuge 5242R). The debris-free supernatants were moved to LCMS Certified Clear Glass 12×32 mm screw neck max recovery vials (Waters®). Ten microliters of each sample were analyzed using LC-MS/MS on a Quattro Premier XE mass spectrometer coupled with an Acquity Ultra Performance LC system (Waters®). Cyclic di-GMP was detected with electrospray ionization using multiple reaction monitoring in negative-ion mode at m/z 689.16→344.31. […]
In the case of SpdE, ligand binding to the PAS/Cache was hypothesized to regulate SpdE diguanylate cyclase activity, thereby altering intracellular levels of c-di-GMP. To test this, WT and ΔspdE Aer01 were incubated in the presence or absence of amino acid ligands for ˜4 hrs, then pelleted and lysed the cells to extract and quantify intracellular c-di-GMP.
Experiment [3] has as its system Aer01. The experiment is classed as cell-based, Aeromonas veronii.
Description: Exploration Assay. Overnight cultures (TSB) of Aer01 Strains were pelleted (1 mL), and resuspended in 1 ml sterile EM. […] The cultures were incubated, shaking, at 30° C. for 3 hours. An aliquot of each culture was passed through a 0.2 μM filter (Corning® Costar® Spin-X® centrifuge tube filters) to generate cell-free supernatant. To a sterile 96-well plate round-bottom plate, 80 μL of unfiltered culture was added to each well to include five replicates for each condition. To another sterile 96-well plate round-bottom plate, 80 μL of the cell-free supernatant was added to each well to replicate the layout of the culture plate. Using a Rainin Liquidator™ 96-channel benchtop pipettor, 5 μL of the cell-free supernatant was pulled up into 20 μL Rainin pipette tips. These tips then were lowered down into the wells of the culture plate so the tips were submerged to half the depth of the culture volume in the wells. This set-up was incubated at room temperature for 30 min, during which time the cells in the culture can swim up into the supernatant in the pipette tips. After incubation, the contents of the tips were ejected into the wells of a sterile 96-well plate (Corning, flat-bottom, #3595) to which 195 μL of sterile TSB medium was added to each well. This plate was immediately placed in a FLUOstar Omega microplate reader (BMG Labtech, Offenburg, Germany) and growth curves monitored by measuring absorbance (600 nm) every 10 min for 12-16 hrs, with 30° C. incubation and constant shaking. The growth curves were plotted and the times at which the absorbance passed 0.5 was determined for each plot. The time difference between a particular condition and a reference condition (as indicated in FIG. 5C) represents the “exploration response” of Aer01 in that condition.
An “exploration assay” was used to measure population-level motility. For this assay Aer01 was incubated in the presence/absence of amino acid ligand (1 mM) for˜4 hrs, then the culture was added to the wells of a 96-well plate and pipette tips filled with the cell-free supernatant of the same cultures was lowered into the wells (FIG. 13). During a 30 min incubation period the Aer01 cells in the wells swam up into the pipette tips. […] To quantify the number of cells in the pipette tips after the 30 min exploration time, the contents of the pipette tips were ejected into the wells of a 96-well plate containing rich media and growth curves were monitored. […] This time difference between conditions, “exploration response,” was calculated to compare across many strains and conditions (FIG. 12C).
Experiment [4] has as its system Aer01. The experiment is classed as cell-based, Aeromonas veronii. On the procedure: Live imaging and quantification of Aer01 motility. […] EM containing proline or valine (pH adjusted to 7.8 with HCl/NaOH) was added to the wells to generate the desired final concentrations of amino acid (0, 1 nM, 10 nM, 100 nM, 1 μM, or 1 mM) and cell densities of OD 0.1, each performed in triplicate. The tray was covered by parafilm and incubated at 30° C. for 5 hours. Cells were imaged between hour 5-6. Prior to imaging, bacterial samples were moved to a temperature-controlled box housing the microscope, heated to 30° C. 2 ul of bacteria from treatments were applied to a well slide (MP Biomedicals 10-well multitest slides #096041805), covered with a coverslip, and imaged immediately. Videos of bacteria were captured using a Nikon Eclipse Ti inverted microscope on the GFP channel using 20× magnification at 39 frames per second. Videos of treated bacteria were analyzed with particle tracking software (Parthasarathy, Nature Methods 9:724-236, 2012) using these settings: “objects” were identified using bpfilter 3, nsize 7, and gradobjsize 0. A standard threshold of 3.99-6 was applied, depending on the degree of background. Motile bacteria were defined as objects tracked over at least 1 s (39 frames) with a standard deviation in position of pixels/frame of at least 1.
To do this, Aer01 was incubated in medium+/−ligand (ranging between 0 and 1 mM) then wet-mounted and imaged on an inverted microscope.
This is another data set of the same source.

Experiment [5] concerns Aer01. The experiment is classed as cell-based, Aeromonas veronii. The source holds these as a separate data set.
Description: For light-sheet microscope-based imaging and determination of cellular swim speeds, overnight cultures (TSB) of strains (dTomato-tagged Aer01 and dTomato-tagged ΔspdE) were washed twice with sterile EM, as above. […] FC-EM was generated by collecting the flask EM of GF 5 or 6 dpf zebrafish larvae, filter-sterilizing and storing at 4° C. A glass cuvette was filled with culture and imaged on a custom-built light sheet fluorescence microscope, as previously described (Taormina et al., Biol. Bull. 223:7-20, 2012). The light sheet optically sections bulk samples in the center of the cuvette, so as not to constrain the motility of the imaged bacteria by surfaces. Movies in a single optical plane were captured for a duration of 20 seconds (frame rate of 30 frames/sec) with excitation light provided by a 561 nm solid state laser (Coherent Sapphire 20 mW; all strains expressed dTomato fluorescent protein). […] As above, particle tracking software, which uses a radial-symmetry-based algorithm, was used to analyze images (Parthasarathy, Nature Methods 9:724-726, 2012). The following parameters were used: bpfiltsize=7, nsize=7, gradobjsize=7, 1/nhood=true. […]
Therefore, the cells were next imaged in a cuvette on a light sheet microscope where they would be recorded within a three-dimensional space and not impeded by surfaces. […]
The test system of experiment [6] is Aer01. In words: Biofilm assay (crystal violet). The experiment is classed as cell-based, Aeromonas veronii. The note with it: WT Aer01, 1 mM ligand, 48 hrs.
Description: Biofilm Assay. […] To the wells of a sterile 96-well plate (Corning, flat-bottom, #3595), 150 μL of each resuspended culture was added, in triplicate. A blank control well was added for each condition using the appropriate uninoculated media. This plate was incubated at 30° C., stationary, for 48 hours. After incubation, the biofilms were quantified using a standard crystal violet biofilm staining procedure. […] Briefly, the supernatant was removed from each well, then the wells gently rinsed three times with 150 μL sterile EM. Then, 150 μL 0.1% crystal violet was added to each well and the plate was incubated at room temperature for 10 minutes, followed by five rinses with 150 μL sterile EM. To destain, 150 μL 95% ethanol was added to each well and the plate was incubated at room temperature for 10 minutes. Each well was mixed well and the contents transferred to a clean 96-well plate and the absorbance (570 nm) was read on a FLUOstar Omega microplate reader (BMG Labtech, Offenburg, Germany).
For experiment [7], the system named is Aer01 colonization of larval zebrafish gut. The experiment in a line: Bacterial competitions in vivo (competitive index). To be noted: GF zebrafish.
Description: Bacterial competitions in vivo. For in vivo bacterial competitions, strains (purified evolved isolates, or Aer01 genetic variants) were grown overnight in TSB from freezer stocks. 1 ml of the overnight cultures were pelleted (8,700 rcf, 2 min), then resuspended in 1 ml sterile EM. Competing strains were mixed, then added to flasks of 4 dpf GF (or CV fish) WT fish at ˜10^6 CFU/ml. For all competitions, sfGFP-tagged Aer01 was used as the “reference” strain. […] At 7 dpf, fish intestines were dissected as described above, and each intestine transferred into a 1.6 ml tube containing 500 μl sterile EM and ˜100 μl bullet beads, then bullet blended as described above. Homogenized samples were diluted appropriately in sterile EM, spread plated on TSA plates, incubated at 30° C. for 1-2 days, and the colonies counted. Strains were differentiated by fluorescence microscopy. Competitive index (CI) was calculated by dividing the strain ratio (test strain divided by reference strain) in the gut at the end of the competition by the strain ratio in the inoculum ((test/reference)gut/(test/reference)inoculum) (FIG. 1). The limit of detection is 5 CFU/gut; for samples were one strain was below the limit of detection, the abundance was set to 5 CFU in order to calculate a CI; this was the case for few of the samples.
To test whether WT motility, and therefore immigration into the host, could be increased with addition of ligands, competitions were performed as previously described, this time supplementing the inoculum and flask medium with SpdE ligand.
Experiment [8] in a line: Thermofluor assay with Aer01 SpdE single residue variants. The experiment is classed as binding, Aeromonas veronii. To be noted: single residue change versus wild-type Aer01 SpdE PAS/dCache. Here is the method:
as §1, with “binding. […]” for “binding.”
In general terms: In DSF a fluorescence change marks the thermal transition of the protein.

Experiment [9] can be described thus: SpdE-NarQ chimeric sensor β-galactosidase reporter. The experiment is classed as cell-based, Escherichia coli. To be noted: expected from sensitivity of SpdE-dependent responses. The source says: SpdE tandem PAS/dCache is a sensitive and specific sensor of particular amino acids. This domain is utilized for the design of novel biosensors of amino acid ligands by engineering chimeric reporter proteins fusing them to the signaling domain of an Escherichia coli protein, NarQ. NarQ is a nitrate/nitrite sensor which contains a C-terminal histidine kinase signaling domain. Here, the SpdE-NarQ hybrid protein includes the tandem PAS/dCache sensing domain (proximal and distal PAS/Cache domains) and both transmembrane domains of SpdE, and the HAMP and histidine kinase signaling domain of NarQ (FIG. 21A). When activated, the NarQ signaling domain auto-phosphorylates, then transfers the phosphoryl group to NarL, a transcriptional activator that binds nitrate-responsive promotors such as narG. In this system LacZ, a β-galactosidase, is under the control of the narG promoter, therefore activation of NarL results in expression of LacZ and increased β-galactosidase activity. The β-galactosidase activity is quantified via a colorimetric assay. Based on the sensitivity of SpdE-dependent responses in the assays disclosed herein, this hybrid protein is expected to detect ligand concentrations of 10 μM or less. […] Therefore, β-galactosidase activity will decrease with increasing ligand concentrations (e.g., FIG. 21B).

Consider `NCC(=O)O` [Glycine, glycine], for which the “thermal shift (ΔTm) in words” value in experiment [1] was “negative amino acid control”. Also, the “intracellular c-di-GMP” value in experiment [2] was “no change”.

Turning to `C[C@H](N)C(=O)O` [alanine], in experiment [1], the “thermal shift (ΔTm) in words” value is “smaller degree”.

For `CC[C@H](C)[C@H](N)C(=O)O` [isoleucine], in [1], the “thermal shift (ΔTm) in words” value is recorded as “largest shifts”.

Consider `CC(C)C[C@H](N)C(=O)O` [leucine], for which, in experiment [1], the “thermal shift (ΔTm) in words” value is “smaller degree”.

Consider `CSCC[C@H](N)C(=O)O` [methionine], for which the “thermal shift (ΔTm) in words” value in experiment [1] is “smaller degree”.

On to `O=C(O)[C@@H]1CCCN1` [proline], for which, in experiment [1], the “ΔTm (difference between test Tm and water control Tm)” value was roughly 20 degrees; the “thermal shift (ΔTm) in words” value is listed as “largest shifts”. Moreover, the “intracellular c-di-GMP” value in experiment [2] is recorded as “significantly lower”. Also, the “motility response in exploration assay” value with Aer01 [3] (WT Aer01, 100 nM proline) is given as “a response was measured”. Moreover, the exploration response in the experiment with Aer01 [3] (WT Aer01, 1 mM ligand versus WT without ligand, mean) came to 28.9 min. Further, the “exploration response across proline concentrations” value in the experiment on Aer01 [3] (WT Aer01, between 100 nM and 1 mM proline) is reported as “dose-dependent response trend”. In addition, in the experiment on Aer01 [4], the motility result is on record as “little increase” and the “number of motile cells” value is “striking increase”. Also, the “cellular velocity (average of median values)” value in the experiment on Aer01 [5] (WT Aer01, 1 mM proline (12.6 μm/sec without ligand)) stood at 24.5 μm/sec. The cellular velocity change result in the experiment on Aer01 [5] (ΔspdE, 1 mM proline) is reported as “did not increase”. In addition, the biofilm formation entry in the experiment on Aer01 [6] is reported as “more robust biofilms in the absence of ligand”. The “CI of ΔspdE versus WT” value in experiment [7] (100 nM and 10 nM proline) was “reduced CI but to a much lesser extent”. Moreover, the “median CI (competitive index) of ΔspdE versus WT” value in experiment [7] (ligand supplemented into inoculum and flask medium (1 mM proline)) is reported as 2.

For the molecule `C[C@@H](O)[C@H](N)C(=O)O` [threonine], the “thermal shift (ΔTm) in words” value in [1] was “smaller degree”.

B1: W140/146A: Aer01 SpdE PAS/dCache variant, single residue change in the distal PAS/Cache (protein, listed as Aeromonas veronii)
chain: MSPAKPKNTWSLITRMRLGFLLLFIPVLLLGSIYYLHMERTLRHEQQQYLIARNTQYFHTLIEPYLATLKRQFTLIYQQVNYRDFSGPEIRNGERYLQQWQAYHKVMELDYVYVGTEHRKMLIHPSWQADEKFDPRTRPAYLLAASHPGQIVWTDPYYDYTLGTLTMALARVIKDPDGKRVGVLSLDTQLTPLASWLNSRHAQSHHLGNGYQLLLNHDGLVLAHPDRERVFKPLAHPDWLARMQQPQGFFLDDASGLMVSYYRIPEQRWILLSVEPTASMQQVIDSVSINVQLMIAVACFFYLLLALLWARYFRRMLGEITLLIRTSRSGGTAYHGSRMLELAKVYEEMDAASQDFAQIRQQANQDKLTGLYNRRFFDECLQKQLNSGAPFGVVMFDLDDFKRVNDTHGHQAGDVVLKRVSKLGMNLFHEWGWFCRYGGEELVLIFRYGEEQPMLPSLLEAFRLGVEQLEWREPDLTITISGGVAFSRSGLSAKELVELADKGVYQAKREGKNRICFPLRHTPHQSAEEGVPAFGETQQQTNEG
With B1, the “ligand binding (thermal shift)” value in experiment [8] is listed as “reduction in ligand binding”.

B2: Y157/163A: Aer01 SpdE PAS/dCache variant, single residue change in the distal PAS/Cache (protein, listed as Aeromonas veronii)
chain: MSPAKPKNTWSLITRMRLGFLLLFIPVLLLGSIYYLHMERTLRHEQQQYLIARNTQYFHTLIEPYLATLKRQFTLIYQQVNYRDFSGPEIRNGERYLQQWQAYHKVMELDYVYVGTEHRKMLIHPSWQADEKFDPRTRPWYLLAASHPGQIVWTDPAYDYTLGTLTMALARVIKDPDGKRVGVLSLDTQLTPLASWLNSRHAQSHHLGNGYQLLLNHDGLVLAHPDRERVFKPLAHPDWLARMQQPQGFFLDDASGLMVSYYRIPEQRWILLSVEPTASMQQVIDSVSINVQLMIAVACFFYLLLALLWARYFRRMLGEITLLIRTSRSGGTAYHGSRMLELAKVYEEMDAASQDFAQIRQQANQDKLTGLYNRRFFDECLQKQLNSGAPFGVVMFDLDDFKRVNDTHGHQAGDVVLKRVSKLGMNLFHEWGWFCRYGGEELVLIFRYGEEQPMLPSLLEAFRLGVEQLEWREPDLTITISGGVAFSRSGLSAKELVELADKGVYQAKREGKNRICFPLRHTPHQSAEEGVPAFGETQQQTNEG
Turning to B2, the “ligand binding (thermal shift)” value in experiment [8] is “reduction in ligand binding”.

B3: SpdE-NarQ hybrid protein: SpdE tandem PAS/dCache and transmembrane domains fused to HAMP and histidine kinase signaling domain of E. coli NarQ (protein)
chain: MSPAKPKNTWSLITRMRLGFLLLFIPVLLLGSIYYLHMERTLRHEQQQYLIARNTQYFHTLIEPYLATLKRQFTLIYQQVNYRDFSGPEIRNGERYLQQWQAYHKVMELDYVYVGTEHRKMLIHPSWQADEKFDPRTRPWYLLAASHPGQIVWTDPYYDYTLGTLTMALARVIKDPDGKRVGVLSLDTQLTPLASWLNSRHAQSHHLGNGYQLLLNHDGLVLAHPDRERVFKPLAHPDWLARMQQPQGFFLDDASGLMVSYYRIPEQRWILLSVEPTASMQQVIDSVSINVQLMIAVACFFYLLLALLWLNQLVTASQRIEHGQFDSPPLDTNLPNELGLLAKTFNQMSSELHKLYRSLEASVEEKTRDLHEAKRRLEVLYQCSQALNTSQIDVHCFRHILQIVRDNEAAEYLELNVGENWRISEGQPNPELPMQILPVTMQETVYGELHWQNSHVSSSEPLLNSVSSMLGRGLYFNQAQKHFQQLLLMEERATIARELHDSLAQVLSYLRIQLTLLKRSIPEDNATAQSIMADFSQALNDAYRQLRELLTTFRLTLQQADLPSALREMLDTLQNQTSAKLTLDCRLPTLALDAQMQVHLLQIIREAVLNAMKHANASEIAVSCVTAPDGNHTVYIRDNGIGIGEPKEPEGHYGLNIMRERAERLGGTLTFSQPSGGGTLVSISFRSAEGEESQLM
modifications: SpdE-NarQ fusion protein
B3 showed a detectable ligand concentration in experiment [9] of no more than 10 µM.
